Source: patent US8454582B2, “Methods and devices for the treatment of ocular conditions” (Surmodics, Inc., priority 2004, dated 2013)

Tests used:
[1] = In vivo elution: HPLC detection of TA in tissues after 4-week subretinal PCL/TA implantation; conditions: four weeks after subretinal implant, PCL/TA 60:40, rabbit
[2] = 72 hours after injection; cited from earlier work

| SMILES | TA in the anterior structures (HPLC) [1] | TA in the blood (HPLC) [1] | TA in the posterior tissue samples (HPLC) [1] | triamcinolone present in the vitreous that is associated with other tissues including the retina, pigment epithelium, and sclera [2] |
| --- | --- | --- | --- | --- |
| CC1(C)O[C@@H]2C[C@H]3[C@@H]4CCC5=CC(=O)C=C[C@]5(C)[C@@]4(F)[C@@H](O)C[C@]3(C)[C@]2(C(=O)CO)O1 [TA, Triamcinolone acetonide] | not detected | not detected | confirmed the presence |  |
| C[C@]12C=CC(=O)C=C1CC[C@H]1[C@@H]3C[C@@H](O)[C@](O)(C(=O)CO)[C@@]3(C)C[C@H](O)[C@@]12F [triamcinolone] |  |  |  | less than 1% |
